According to PubChem BioAssay (NCI):
Several values for one entry are separate records, joined by “and”; a condition that tells them apart may be missing. Equal values may be shown once.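 Method: 48-hour compound exposure of cells in 96-well plates, five concentrations, linear interpolation of endpoints. Abbreviation: GI50, concentration required for 50% inhibition of growth. Definition used: TGI = concentration required for complete inhibition of growth.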 Where a SMILES comes first, the peptide text is derived from it. [ ]: non-standard residue; d: D form. The star is where a group is joined. ξ: configuration not given here. 4Abz = Nc1ccc(C(=O)O)cc1; ξL = CC(C)CC(N)C(=O)O; NHOH = ON*

How the values were obtained:
Assay in all cases: inhibition of tumour cell growth, NCI panel, 48 h
786-0 renal = tested on: 786-0 renal
EKVX NSCLC = tested on: EKVX NSCLC
IGROV1 ovarian = tested on: IGROV1 ovarian
M14 melanoma = tested on: M14 melanoma
MOLT-4 leukemia = tested on: MOLT-4 leukemia
RXF 393 renal = tested on: RXF 393 renal
SF-268 CNS = tested on: SF-268 CNS
SK-MEL-28 melanoma = tested on: SK-MEL-28 melanoma
SK-OV-3 ovarian = tested on: SK-OV-3 ovarian
UACC-62 melanoma = tested on: UACC-62 melanoma

Structure (SMILES)	TGI (786-0 renal) [µM]	TGI (EKVX NSCLC)	TGI (IGROV1 ovarian) [µM]	TGI (M14 melanoma) [µM]	TGI (MOLT-4 leukemia) [µM]	TGI (RXF 393 renal)	TGI (SF-268 CNS) [µM]	TGI (SK-MEL-28 melanoma) [µM]	TGI (SK-OV-3 ovarian) [µM]	TGI (UACC-62 melanoma) [µM]	GI50 (786-0 renal) [µM]	GI50 (EKVX NSCLC)	GI50 (IGROV1 ovarian) [µM]	GI50 (M14 melanoma) [µM]	GI50 (MOLT-4 leukemia)	GI50 (RXF 393 renal) [µM]	GI50 (SF-268 CNS) [µM]	GI50 (SK-MEL-28 melanoma)	GI50 (SK-OV-3 ovarian)	GI50 (UACC-62 melanoma)
COc1ccc2c(c1)Cc1cc(N=[N+]([O-])c3ccc4c(c3)Cc3cc(OC)ccc3-4)ccc1-2	> 100	> 100 µM	55.2	> 100	> 100	> 100 µM	> 100	> 100	> 100	85.4										
O=C(O)/C=C/C(=O)Nc1cccc2c1-c1ccccc1C2=O	> 100	> 100 µM	> 100	> 100	> 100	> 55 µM	> 100	> 100	> 100	> 100										
COC(=O)c1ccc2n[se]nc2c1	> 100	> 100 µM	> 100	> 100	> 100	> 100 µM	> 100	> 100	> 100	> 100										
c1ccc2c(c1)N=c1ccccc1=P21c2ccccc2Nc2ccccc21	11.7	> 31.1 µM	10.6	5.67	1.67	1.89 µM	10.2	11.7	5.82	> 100										
COc1cccc(-n2cnc3c(N/N=C/c4ccncc4)ncnc32)c1	> 25	> 25 µM	> 25	> 25	> 25	> 25 µM	> 25	> 25	> 23.7	> 25	19.5	> 25 µM	8.65	10.3	> 25 µM	6.42	24.5	13 µM	7.88 µM	8.2 µM
C[N+](C)(C)CC(=O)NC(=O)N/N=C\C(CC#N)CN(Cc1ccccc1)Cc1ccccc1 (stereo not drawn)	> 100	> 100 µM	> 100	> 100	> 100	> 100 µM	> 100	> 100	> 100	> 100										
CC(C)CC(NC(=O)[C@@H]1CCCN1C(=O)CNC(=O)c1ccc(N)cc1)C(=O)N[C@H](C)C(=O)NO (stereo partly drawn) (H-[4Abz]GP[ξL][dA]-{NHOH})	> 100	> 100 µM	> 100	> 100	> 100	> 100 µM	> 100	> 100	> 100	> 100	> 100	> 100 µM	> 100	> 100	> 100 µM	> 100	> 100	> 100 µM	> 100 µM	> 100 µM
CN1CCN(c2nc(NCCNc3ccnc4cc(Cl)ccc34)c3ccccc3n2)CC1	10	17.3 µM	7.94	3.59	6.36	3.46 µM	13.1	3.39	11.7	3.39	2.33	3.86 µM	2.51	1.83	1.63 µM	1.46	2.72	1.83 µM	3.18 µM	1.82 µM
CCCCCCCC(=O)SCC/C=C/[C@@H]1CC(=O)NCc2cccc(n2)CN(Cc2ccc(Cl)cc2)CC(=O)N[C@@H](C(C)C)C(=O)O1	> 100	> 100 µM	> 100	> 100	> 100	44 µM	> 100	> 100	42.7	26.5	22	17.8 µM	7.02	9.1	3.21 µM	5.9	20	5.04 µM	6.41 µM	5.85 µM
O=c1c2ccccc2oc2nccnc12	> 100	> 100 µM	> 100	> 100	> 100	> 100 µM	> 100	> 100	> 100	> 100										
NNC(=S)N/N=C(\c1nc2ccc(Cl)cc2[nH]c1=O)C(O)c1ccc(Cl)cc1Cl (stereo not drawn)	> 100	> 100 µM	> 100	> 100	> 100	> 100 µM	> 100	> 100	> 100	> 100										
Cn1c(=O)c(C2c3ccccc3Oc3c2c(=O)n(C)c2ccccc32)c(O)c2ccccc21 (stereo not drawn)	> 100	> 100 µM	> 100	> 100	> 100	> 100 µM	> 100	> 100	> 100	> 100										
Cc1cccc2c1NC(c1c(C)[nH]c3ccccc13)C2 (stereo not drawn)	> 100	> 100 µM	> 100	> 100	> 100	> 100 µM	> 100	> 100	> 100	> 100										
Nc1ccc(Cl)cc1.Nc1ccc(Cl)cc1.Nc1ccc(Cl)cc1.O=C([O-])C(=O)[O-].O=C([O-])C(=O)[O-].[H+].[Ru+5]	> 100	> 100 µM	> 100	> 100	> 100	> 100 µM	> 100	> 100	> 100		1.44	8.15 µM	> 100	> 100	1.2 µM	> 100	> 100		> 100 µM	< 0.0174 µM
Cc1c(Br)cccc1NC(=O)c1sc2nc3c(cc2c1N)CN(Cc1ccccc1)CC3	7.98	> 50 µM	> 50	0.386	> 50	0.402 µM	27.2	> 50	22.7	> 50	0.256	0.359 µM	0.47	0.107	0.409 µM	0.123	0.525	0.977 µM	0.294 µM	0.372 µM
Cc1cc(C)c(-c2noc(-c3ccc(Cl)cc3)c2C2=NCCN2)c(C)c1	29.3	71.8 µM	76.7	27	41.3	45.1 µM	37.4	36.9	> 100	33.8										

Structure (SMILES)	TGI (786-0 renal) [µM]	TGI (EKVX NSCLC)	TGI (IGROV1 ovarian) [µM]	TGI (M14 melanoma) [µM]	TGI (MOLT-4 leukemia) [µM]	TGI (RXF 393 renal)	TGI (SF-268 CNS) [µM]	TGI (SK-MEL-28 melanoma) [µM]	TGI (SK-OV-3 ovarian) [µM]	TGI (UACC-62 melanoma) [µM]	GI50 (786-0 renal) [µM]	GI50 (EKVX NSCLC)	GI50 (IGROV1 ovarian) [µM]	GI50 (M14 melanoma) [µM]	GI50 (MOLT-4 leukemia)	GI50 (RXF 393 renal) [µM]	GI50 (SF-268 CNS) [µM]	GI50 (SK-MEL-28 melanoma)	GI50 (SK-OV-3 ovarian)	GI50 (UACC-62 melanoma)
COC1=C(NC(C)=O)C(=O)c2nc3n(c2C1=O)CCC3	36.4	38.9 µM	35.6	32.8	> 66.8	31.7 µM	33.2	32.9	> 100	32.4										
COc1ncn(C2C=C(CO)C(O)C2O)c(=O)n1 (stereo not drawn)	> 100	> 100 µM	> 100	> 100	> 100	> 100 µM	> 100	> 100	> 100	> 100										
O=C(O)C(=O)/C=C\c1ccc(Cl)cc1	> 100	> 100 µM	> 100	> 100	> 100	> 100 µM	> 100	> 100	> 100	> 100										
N#CC1=C(N)Oc2c(sc3c(F)cccc23)C1c1ccc(Cl)cc1 (stereo not drawn)	11.1	21.7 µM	17.1	6.57	10.5	6 µM	31.2	28.2	20	17.5	3.15	4 µM	3.43	2.19	2.93 µM	1.92	4.32	5.86 µM	5.16 µM	3.26 µM
COc1cc(Oc2cnc3cc(N)cc(N)c3n2)cc(OC)c1OC	> 100	> 100 µM	> 100	76.2	51.9	89.8 µM	> 100	> 100	> 100	> 100	33	61.4 µM	32.8	22.7	20.2 µM	25.4	67.3	36.6 µM	91.2 µM	35.4 µM
CC(=N\O)/C(C)=N/O.CC(=N\O)/C(C)=N/O.[Pd]	8.86	> 10 µM	9.16	8.55	> 10	7.42 µM	> 10	9.48	> 10	5.75	3.31	6.71 µM	3.09	3.04	> 10 µM	3.42	6.95	3.87 µM	7.62 µM	2.11 µM
CC(=O)c1c[nH]c2ccc(-c3ccnc(Nc4ccc(NC(=O)c5cccc(F)c5)c(CN5CCOCC5)c4)n3)cc12	> 26.2	1.52 µM	1.69	0.794	> 100	0.054 µM	2.49	4.25	> 100	0.43	0.157	0.239 µM	0.151	0.188	0.262 µM	0.0221	0.225	0.233 µM	0.562 µM	0.127 µM
c1cc(C2O[C@H]3CCCN3[C@@H]2c2ccncc2)ccn1 (stereo partly drawn)	> 100	> 100 µM	> 100	> 100	> 100	> 100 µM	> 100	> 100	> 100	> 100										
Nc1ncnc2c1ncn2C1OC(CO)C(O)C1O (stereo not drawn)	> 100	> 100 µM and 152 µM and > 84.3 µM	> 450	> 100	> 450	> 100 µM and 290 µM and 64.1 µM	> 450	> 450	> 450	> 450	9.22	> 100 µM and 48.3 µM and 17 µM	> 450	32.2	> 100 µM and 201 µM	22.5	38.7	> 100 µM and 313 µM and 62.3 µM	> 100 µM and 296 µM and 34 µM	> 100 µM and 247 µM and 27.2 µM
NS(=O)(=O)OC[C@H]1O[C@@H](n2cnc3c(N[C@H]4CCc5ccccc54)ncnc32)[C@H](O)[C@@H]1O	0.373	9.07 µM	1	2.35	1.99	0.506 µM	0.449	0.276	0.644	0.374	0.0799	0.349 µM	0.174	0.226	0.22 µM	0.258	0.122	0.047 µM	0.234 µM	0.0451 µM
COc1ccc(-c2ccc(/C=N/n3cnn(CN4CCN(C)CC4)c3=S)o2)c([N+](=O)[O-])c1	> 100	> 100 µM	> 100	60.7	> 100	> 100 µM	69.5	> 100	> 100	40	19.6	34.8 µM	54.7	14.2	31.2 µM	24.4	23.6	44.5 µM	36.4 µM	16.1 µM
CCCCc1c2c(nc3c1CCc1cc(C=O)c(N)nc1-3)/C(=C/c1ccccc1)CCC2	> 100	> 100 µM	> 100	> 100	> 100	> 100 µM	> 100	> 100	> 100	> 100										
Nc1nc(Cl)cc2c1ncn2C1OC(CO)C(O)C1O (stereo not drawn)	> 100	> 100 µM	> 100	> 100	> 100	> 100 µM	> 100	> 100	> 100	> 100	> 100	> 100 µM	> 100	> 100	> 100 µM	> 100	> 100	> 100 µM	> 100 µM	> 100 µM
COC(=O)CC[C@@H](NC(=O)C(C)NC(=O)COC1C(O)C(COC(=O)CCCCCCCCCCNC(=O)c2ccc([N+](=O)[O-])c3[nH]c4cc(Br)ccc4c(=O)c23)OC(OCc2ccccc2)C1NC(C)=O)C(N)=O (stereo partly drawn)	> 100	> 100 µM	49.8	> 100	> 100	80.3 µM	> 100	> 100	> 100	> 100										
COC1=CC(=O)c2c(O)c3c(c(O)c2C1=O)CC(C)(O)OC3 (stereo not drawn)	27.3	18.7 µM	7.94	4.53	8.68	16.5 µM	> 100	31.5	58.9	7.35										
